Patent US11795423B2, “Micro-fabricated multi-well chips for long term automated imaging of C. elegans growth and behavior” (THE TRUSTEES OF THE UNIVERSITY OF PENNSYLVANIA, priority 2014, dated 2023)

System: C. elegans
Method: NGM buffer is NGM agar without agar, peptone, or cholesterol.
A moat solution of 100 mM CuSO4 was prepared, which was approximately in osmotic equilibrium with the agar medium. The moat solution was added to the moats by pipette.

`O=S(=O)([O-])[O-].[Cu+2]` [copper sulfate] was tested. Which worms escaped (after 3 days, moat containing 100 mM copper sulfate, NGM liquid moat as comparison (about 20%)) did it give?
Its worms escaped is 5%.

And the “preventing animals from leaving their wells (fraction of worms escaping wells as a function of time)” value (moat containing 100 mM CuSO4, n=96, versus moat containing NGM buffer, FIG. 7b)?
Its value is “superior”.
